The record followed here is PubChem BioAssay AID398.

The test deals with 11-beta-hydroxysteroid dehydrogenase 1 (Homo sapiens) (UniProt P28845). Nature of the test: HSD11B1 binders by thermal stabilization, biophysical, DSF, SYPRO orange, purified protein (AID 398). The conditions noted are these: protein 3 µM, buffer 10 mM HEPES, pH 7.5, NaCl 150 mM, stronger effect = higher value.
Chain of 11-beta-hydroxysteroid dehydrogenase 1 (Homo sapiens) (P28845 whole entry, looked up): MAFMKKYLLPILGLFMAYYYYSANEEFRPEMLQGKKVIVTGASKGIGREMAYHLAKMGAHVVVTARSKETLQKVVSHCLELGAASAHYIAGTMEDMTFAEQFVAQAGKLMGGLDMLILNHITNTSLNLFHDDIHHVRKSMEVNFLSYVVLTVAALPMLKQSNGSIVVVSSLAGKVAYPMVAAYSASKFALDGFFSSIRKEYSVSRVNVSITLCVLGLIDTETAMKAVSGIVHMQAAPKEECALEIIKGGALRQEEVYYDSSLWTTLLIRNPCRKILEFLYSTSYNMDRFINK

For `NC(=O)c1ccc[n+](C2OC(COP(=O)(O)OP(=O)(O)OCC3OC(n4cnc5c(N)ncnc54)C(OP(=O)(O)O)C3O)C(O)C2O)c1` (stereo unspecified), the Tm shift reads like this: (at 40 µM) 5.7 Celsius; (measured here: second DSF experiment, at 40 µM, run 2, at 40 µM) 2.6 Celsius. Consider `CC(C)(COP(=O)(O)OP(=O)(O)OCC1OC(n2cnc3c(N)ncnc32)C(O)C1OP(=O)(O)O)C(O)C(=O)NCCC(=O)NCCSC(=O)CCC(=O)O` (stereo unspecified), for which the Tm shift (at 10 µM, NADP 100 µM) is 2.7 Celsius. The same measure, in the same setting: to `C=CC1=C(C)/C(=C/c2[nH]c(Cc3[nH]c(/C=C4\NC(=O)C(C)=C4C=C)c(C)c3CCC(=O)O)c(CCC(=O)O)c2C)NC1=O` belongs 3.9 Celsius; to `COC(=O)[C@H](C)CO`, 6.7 Celsius. Regarding `CC(C)(COP(=O)(O)OP(=O)(O)OCC1OC(n2cnc3c(N)ncnc32)C(O)C1OP(=O)(O)O)C(O)C(=O)NCCC(=O)NCCSC(=O)Cc1ccccc1` (stereo unspecified), the Tm shift (at 10 µM, NADP 100 µM) is 3.6 Celsius.
